Results taken from patent US9156872B2, “2′-azido substituted nucleoside derivatives and methods of use thereof for the treatment of viral diseases” (priority 2011, dated 2015).

These compounds were tested on HCV replicon cells (assay: Cell-based HCV replicon assay (replicon RNA by Taqman real time PCR)). Conditions: HCV replicon 1b, cells harvested on day 3; read-out: 1b EC50.

Row | Compound | EC50
1 | C[C@@]1(N=[N+]=[N-])[C@@H]2OP(=O)(OC3CCCC3)OC[C@H]2O[C@H]1n1ccc(=O)[nH]c1=O (single isomer, unassigned) [Compound 562] | 0.4 µM
2 | CC(C)OP1(=O)OC[C@H]2O[C@@H](n3ccc(=O)[nH]c3=O)[C@](C)(N=[N+]=[N-])[C@@H]2O1 (stereo partly drawn) [Compound 44] | > 100 µM
3 | COc1nc(N)nc2c1ncn2[C@@H]1O[C@@H]2COP(=O)(OC3CCC3)O[C@H]2[C@@]1(C)N=[N+]=[N-] (single isomer, unassigned) [Compound 104] | 10.9 µM
4 | CCOc1nc(N)nc2c1ncn2[C@@H]1O[C@@H]2COP(=O)(OC3CCC3)O[C@H]2[C@@]1(C)N=[N+]=[N-] (single isomer, unassigned) [Compound 108] | 24.1 µM
5 | CCCOP1(=O)OC[C@H]2O[C@@H](n3ccc(=O)[nH]c3=O)[C@](C)(N=[N+]=[N-])[C@@H]2O1 (single isomer, unassigned) [Compound 566] | > 100 µM

Same assay, conditions: Hepatitis C virus, 72 h, HCV replicon 1b, cells harvested on day 3; read-out: 1b EC50

Row | Compound | EC50
6 | CC(C)OP1(=O)OC[C@H]2O[C@@H](n3ccc(=O)[nH]c3=O)[C@](C)(N=[N+]=[N-])[C@@H]2O1 (stereo partly drawn) [Compound 43] | > 100 µM

Same assay, conditions: Hepatitis C virus, 72 h, read-out: 1b EC50

Row | Compound | EC50
7 | CCCCOC(=O)[C@H](C)NP(=O)(OC[C@H]1O[C@@H](n2ccc(N)nc2=O)[C@](C)(N=[N+]=[N-])[C@@H]1O)Oc1cccc2ccccc12 (stereo partly drawn) [Compound 3] | 1.2 µM
8 | COC(=O)[C@H](C)NP(=O)(OC[C@H]1O[C@@H](n2cnc3c(OC)nc(N)nc32)[C@](C)(N=[N+]=[N-])[C@@H]1O)Oc1cccc2ccccc12 (stereo partly drawn) [Compound 57] | 0.4 µM
9 | COC(=O)[C@H](C)NP(=O)(OC[C@H]1O[C@@H](n2ccc(=O)[nH]c2=O)[C@](C)(N=[N+]=[N-])[C@@H]1O)Oc1ccccc1Cl (stereo partly drawn) [Compound 40] | 4 µM
10 | CC(=O)CCc1ccc(OP(=O)(N[C@@H](C)C(=O)OC(C)C)OC[C@H]2O[C@@H](n3ccc(=O)[nH]c3=O)[C@](C)(N=[N+]=[N-])[C@@H]2O)cc1 (stereo partly drawn) [Compound 178] | 3 µM
11 | COc1nc(N)nc2c1ncn2[C@@H]1O[C@H](COP(=O)(N[C@@H](C)C(=O)OC(C)C)Oc2ccccc2Cl)[C@@H](O)[C@@]1(C)N=[N+]=[N-] (stereo partly drawn) [Compound 240] | 5.8 µM
12 | COC(=O)[C@H](C)NP(=O)(OC[C@H]1O[C@@H](n2cnc3c(N4CCC4)nc(N)nc32)[C@](C)(N=[N+]=[N-])[C@@H]1O)Oc1ccccc1 (stereo partly drawn) [Compound 390] | 3.4 µM
13 | CCCOC(=O)[C@H](C)N[P@@](=O)(OC[C@H]1O[C@@H](n2ccc(=O)[nH]c2=O)[C@](C)(N=[N+]=[N-])[C@@H]1O)Oc1cccc2ccccc12 (single isomer, unassigned) [Compound 375] | 0.8 µM
14 | CCOc1nc(N)nc2c1ncn2[C@@H]1O[C@H](COP(=O)(N[C@@H](C)C(=O)OC)Oc2ccccc2)[C@@H](O)[C@@]1(C)N=[N+]=[N-] (single isomer, unassigned) [Compound 142] | 0.5 µM
15 | CCOc1nc(N)nc2c1ncn2[C@@H]1O[C@H](COP(=O)(N[C@@H](C)C(=O)OC)Oc2ccccc2Cl)[C@@H](O)[C@@]1(C)N=[N+]=[N-] (single isomer, unassigned) [Compound 309] | 0.57 µM
16 | CCOc1nc(N)nc2c1ncn2[C@@H]1O[C@H](COP(=O)(N[C@@H](C)C(=O)OC)Oc2ccccc2)[C@@H](O)[C@@]1(C)N=[N+]=[N-] (stereo partly drawn) [Compound 9] | 0.8 µM
17 | COc1nc(N)nc2c1ncn2[C@@H]1O[C@H](COP(=O)(N[C@@H](C)C(=O)OC2CCCCC2)Oc2ccccc2)[C@@H](O)[C@@]1(C)N=[N+]=[N-] (stereo partly drawn) [Compound 239] | 3.6 µM
18 | CCCC(CCC)COC(=O)[C@H](C)NP(=O)(OC[C@H]1O[C@@H](n2ccc(N)nc2=O)[C@](C)(N=[N+]=[N-])[C@@H]1O)Oc1ccccc1 (stereo partly drawn) [Compound 317] | 39 µM
19 | CCCCOC(=O)[C@H](C)NP(=O)(OC[C@H]1O[C@@H](n2ccc(=O)[nH]c2=O)[C@](C)(N=[N+]=[N-])[C@@H]1O)Oc1cccc2ccccc12 (stereo partly drawn) [Compound 6] | 1.1 µM
20 | CCOC(=O)[C@H](C)NP(=O)(OC[C@H]1O[C@@H](n2cnc3c(NC4CC4)nc(N)nc32)[C@](C)(N=[N+]=[N-])[C@@H]1O)Oc1ccccc1 (stereo partly drawn) [Compound 387] | 1.9 µM
21 | CCOc1nc(N)nc2c1ncn2[C@@H]1O[C@H](COP(=O)(N[C@@H](C)C(=O)OC)Oc2ccccc2Cl)[C@@H](O)[C@@]1(C)N=[N+]=[N-] (stereo partly drawn) [Compound 58] | 0.5 µM
22 | CCOC(=O)[C@H](C)NP(=O)(OC[C@H]1O[C@@H](n2cnc3c(OCC)nc(N)nc32)[C@](C)(N=[N+]=[N-])[C@@H]1O)Oc1ccc(Cl)cc1 (stereo partly drawn) [Compound 71] | 0.6 µM
23 | COC(=O)[C@H](C)NP(=O)(OC[C@H]1O[C@@H](n2ccc(=O)[nH]c2=O)[C@](C)(N=[N+]=[N-])[C@@H]1O)Oc1ccccc1 (stereo partly drawn) [Compound 5] | 3.3 µM
24 | C[C@@]1(N=[N+]=[N-])[C@@H]2OP(=O)(Oc3ccccc3)OC[C@H]2O[C@H]1n1ccc(N)nc1=O (stereo partly drawn) [Compound 65] | 56 µM
25 | CCCOC(=O)[C@H](C)N[P@](=O)(OC[C@H]1O[C@@H](n2ccc(=O)[nH]c2=O)[C@](C)(N=[N+]=[N-])[C@@H]1O)Oc1cccc2ccccc12 (single isomer, unassigned) [Compound 376] | 2.2 µM
26 | COC(=O)[C@H](C)NP(=O)(OC[C@H]1O[C@@H](n2ccc(N)nc2=O)[C@](C)(N=[N+]=[N-])[C@@H]1O)Oc1ccc(F)cc1 (stereo partly drawn) [Compound 36] | 40 µM

Same assay, conditions: read-out: 1b EC50

Row | Compound | EC50
27 | CCOC(=O)c1cccc(OP(=O)(N[C@@H](C)C(=O)OC)OC[C@H]2O[C@@H](n3ccc(=O)[nH]c3=O)[C@](C)(N=[N+]=[N-])[C@@H]2O)c1 (single isomer, unassigned) [Compound 214] | 12 µM
28 | CCOc1nc(N)nc2c1ncn2[C@@H]1O[C@H](COP(=O)(N[C@@H](C)C(=O)OCC(C)(C)C)Oc2ccccc2)[C@@H](O)[C@@]1(C)N=[N+]=[N-] (single isomer, unassigned) [Compound 161] | 1.7 µM
29 | CCOc1nc(N)nc2c1ncn2[C@@H]1O[C@H](COP(=O)(N[C@@H](C)C(=O)OC(C)C)Oc2ccccc2Cl)[C@@H](O)[C@@]1(C)N=[N+]=[N-] (single isomer, unassigned) [Compound 315] | 9.2 µM
30 | COC(=O)[C@H](C)NP(=O)(OC[C@H]1O[C@@H](n2ccc(=O)[nH]c2=O)[C@](C)(N=[N+]=[N-])[C@@H]1O)Oc1ccc(Cl)cc1 (single isomer, unassigned) [Compound 327] | 1.7 µM
31 | CC(C)OC(=O)[C@H](C)NP(=O)(OC[C@H]1O[C@@H](n2ccc(N)nc2=O)[C@](C)(N=[N+]=[N-])[C@@H]1O)Oc1ccccc1Cl (single isomer, unassigned) [Compound 333] | 1.3 µM
32 | CCOP1(=O)OC[C@H]2O[C@@H](n3ccc(=O)[nH]c3=O)[C@](C)(N=[N+]=[N-])[C@@H]2O1 (stereo partly drawn) [Compound 568] | > 100 µM
33 | C[C@H](NP(=O)(OC[C@H]1O[C@@H](n2ccc(=O)[nH]c2=O)[C@](C)(N=[N+]=[N-])[C@@H]1O)Oc1ccc2c(c1)OCO2)C(=O)OCc1ccccc1 (stereo partly drawn) [Compound 306] | 1.3 µM
34 | CCOC(=O)c1ccccc1OP(=O)(N[C@@H](C)C(=O)OC)OC[C@H]1O[C@@H](n2ccc(=O)[nH]c2=O)[C@](C)(N=[N+]=[N-])[C@@H]1O (single isomer, unassigned) [Compound 226] | 26 µM
35 | COC(=O)[C@H](C)NP(=O)(OC[C@H]1O[C@@H](n2cnc3c(OC)nc(N)nc32)[C@](C)(N=[N+]=[N-])C1O)Oc1cccc2ccccc12 (single isomer, unassigned) [Compound 255] | 1.2 µM
36 | COC(=O)[C@H](C)NP(=O)(OC[C@H]1O[C@@H](n2cnc3c(OC)nc(N)nc32)[C@](C)(N=[N+]=[N-])[C@@H]1O)Oc1ccccc1Cl (single isomer, unassigned) [Compound 257] | 0.7 µM
37 | CCOc1nc(N)nc2c1ncn2[C@@H]1O[C@H](COP(=O)(N[C@@H](C)C(=O)OC(C)C)Oc2ccc(F)cc2)[C@@H](O)[C@@]1(C)N=[N+]=[N-] (single isomer, unassigned) [Compound 364] | 6.4 µM
38 | CCOc1nc(N)nc2c1ncn2[C@@H]1O[C@H](COP(=O)(N[C@@H](C)C(=O)OCC(C)C)Oc2ccccc2)[C@@H](O)[C@@]1(C)N=[N+]=[N-] (stereo partly drawn) [Compound 62] | 0.8 µM
39 | CC(C)OC(=O)[C@H](C)NP(=O)(OC[C@H]1O[C@@H](n2ccc(N)nc2=O)[C@](C)(N=[N+]=[N-])[C@@H]1O)Oc1ccccc1Cl (stereo partly drawn) [Compound 96] | 0.6 µM
40 | CCOC(=O)[C@H](C)NP(=O)(OC[C@H]1O[C@@H](n2cnc3c(OC)nc(N)nc32)[C@](C)(N=[N+]=[N-])[C@@H]1O)Oc1ccc(F)cc1 (single isomer, unassigned) [Compound 270] | 1.8 µM
41 | COC(=O)[C@H](C)NP(=O)(OC[C@H]1O[C@@H](n2ccc(N)nc2=O)[C@](C)(N=[N+]=[N-])[C@@H]1O)Oc1ccccc1Cl (stereo partly drawn) [Compound 94] | 10 µM
42 | CCCCOC(=O)[C@H](C)NP(=O)(OC[C@H]1O[C@@H](n2cnc3c(OC)nc(N)nc32)[C@](C)(N=[N+]=[N-])C1O)Oc1cccc2ccccc12 (single isomer, unassigned) [Compound 298] | 0.1 µM
43 | CCCCOC(=O)[C@H](C)NP(=O)(OC[C@H]1O[C@@H](n2ccc(=O)[nH]c2=O)[C@](C)(N=[N+]=[N-])[C@@H]1O)Oc1ccccc1 (single isomer, unassigned) [Compound 169] | 3.5 µM
44 | COc1nc(N)nc2c1ncn2[C@@H]1O[C@H](COP(=O)(N[C@@H](C)C(=O)OCc2ccccc2)Oc2ccccc2)[C@@H](O)[C@@]1(C)N=[N+]=[N-] (single isomer, unassigned) [Compound 278] | 7.3 µM
45 | COC(=O)[C@H](C)NP(=O)(OC[C@H]1O[C@@H](n2cnc3c(OC)nc(N)nc32)[C@](C)(N=[N+]=[N-])C1O)Oc1ccccc1 (single isomer, unassigned) [Compound 261] | 0.9 µM
46 | CC(C)OC(=O)[C@H](C)NP(=O)(OC[C@H]1O[C@@H](n2ccc(N)nc2=O)[C@](C)(N=[N+]=[N-])[C@@H]1O)Oc1ccc2c(c1)OCO2 (single isomer, unassigned) [Compound 334] | 13 µM
47 | COC(=O)[C@H](C)NP(=O)(OC[C@H]1O[C@@H](n2ccc(=O)[nH]c2=O)[C@](C)(N=[N+]=[N-])[C@@H]1O)Oc1ccccc1Cl (stereo partly drawn) [Compound 236] | 6.4 µM
48 | COC(=O)[C@H](C)NP(=O)(OC[C@H]1O[C@@H](n2ccc(=O)[nH]c2=O)[C@](C)(N=[N+]=[N-])[C@@H]1O)Oc1cccc2ccccc12 (stereo partly drawn) [Compound 235] | 0.003 µM
